{"source": "patent US20190031613A1", "about": "“COMPOUNDS AND METHODS FOR THEIR USE IN THE TREATMENT OF MALARIA” (University of South Florida, priority 2016, published 2019)", "key": {"[1]": {"tested_on": "P. berghei-GFP parasites", "assay": "in vivo efficacy, modified Thompson test", "parameters": "species or system mice", "experimental": "Prodrug 6d was orally tested for in vivo efficacy at four doses (0.3 mg/kg, 1.0 mg/kg, 3.0 mg/kg, and 10 mg/kg) in 0.5% aqueous HEC solution."}, "[2]": {"assay": "in vivo pharmacokinetics in mice (plasma, LC/MS-MS)", "experimental": "Plasma exposure of prodrug 6e and parent compound 1b was determined following a single oral administration at 10 mg/kg and 3 mg/kg doses in 0.5% aqueous HEC (FIG. 5b).\nCompounds 1b and its prodrug 6e were administered as a single dose (10 mg/kg) in 0.5% HEC using freshly prepared solution. Parent compound 1d and its prodrugs 6c and 6d were administered as a single dose of 50 mg/kg using the same vehicle. The blood was collected in prepared 5 ml syringe containing heparin via cardiac puncture and put into 15 mL conical tube on ice. Five mice were used per one time point at 0.5 h, 1 h, 2 h, 4 h, 8 h and 24 h […] plus 2 mice as a control (not-treated). The blood was then centrifuged for 5 min at 4000 rpm and plasma supernatant collected while avoiding the whole blood pellet at the bottom of the tube. The plasma was stored at −80° C. until the day of LC/MS-MS analysis.\nCompound concentrations were quantitated in plasma samples by LC/MS-MS using an Agilent triple quadrupole instrument. Chromatographic separation was conducted using an Agilent HPLC with Phenomenex Kinetex C18 column (2.6 μm particle size, 50-4.6 mm i.d.) equipped with a Phenomenex Security Guard column. The mobile phase (1.25 mL/min) consisted of 0.05% formic acid in water and 0.05% formic acid in acetonitrile mixed using a linear gradient over 7 minutes. […] Plasma samples and calibration standards were prepared by protein precipitation with acetonitrile (3 parts acetonitrile to 1 part plasma), followed by centrifugation and analysis of the supernatant. Sample concentrations were determined by comparison to calibration standards prepared in blank plasma and assayed using the same conditions. The analytical lower limit of quantitation in plasma was typically 0.75-1.00 nM and accuracy, precision and recovery were within acceptable limits.\nThe plasma was first warmed up on ice for about 1 hour. Then 50 μL of plasma sample was precipitated with 150 μL of cold acetonitrile with internal standard (133 nM) P4Q-95^20) following by centrifugation at 4,000 rpm for 5 min at 4° C. and transfer˜150 μL of the supernatant to LCMS vial. The samples were analyzed using Agilent triple quadruple instrument in triplicates (5 mice×3 injections for each time point). The chemical structure of P4Q-95^20 is shown below:\nThe calibration curve for 1d was linear in 1 to 500 nM range so samples were diluted if needed to fit this linearity and then concentration recalculated accordingly. Calibration curve was run each time following the actual PK measurements and used for that particular compound."}, "[3]": {"assay": "aqueous stability and parent compound release by quantitative HPLC", "conditions": "parent 1d", "description": "The stability of prodrugs in aqueous media and the release of parent compound was followed for 10 h using HPLC in triplicates.\nCompound stability was assessed using quantitative HPLC in buffers at different pHs (2, 4, 7), in a simulated gastric fluid (SGF) and in a simulated intestinal fluid (SIF)."}, "[4]": {"tested_on": "P. berghei", "conditions": "lowest single-cure dose as reported; cited from earlier work"}, "[5]": {"tested_on": "multidrug resistant malarial strain W2 (pyrimethamine and chloroquine resistant)", "assay": "in vitro antimalarial activity against strain W2", "format": "cell-based", "conditions": "strains W2 and TM90-C2B, strain not specified", "text": "FIG. 2a depicts the synthesis of 4(1H)-quinolones 1 via Conrad-Limpach reaction^24 and conversion to first set of prodrugs (2, 3 and 4) via O-acylation.\nFIG. 4a depicts the synthesis of 4(1H)-quinolones 1 into amino AOCOM ether prodrugs 6 via O-alkylation and subsequent deprotection."}, "[6]": {"assay": "aqueous solubility at pH 7.4", "conditions": "aqueous medium at pH 7.4 (buffer not named), pH 7.4, aqueous buffer"}, "[7]": {"conditions": "single PO dose 10 mg/kg on day 3 PI, 0.5% aqueous HEC"}, "[8]": {"conditions": "oral dose 3.0 mg/kg, 0.5% aqueous HEC"}, "[9]": {"conditions": "oral dose 100 mg/kg, 0.5% aqueous HEC"}, "[10]": {"conditions": "10 mg/kg PO, three daily doses days 3-5 PI, 0.5% aqueous HEC"}, "[11]": {"conditions": "10 mg/kg PO, three daily doses days 3-5 PI, 0.5% aqueous HEC, untreated 13"}, "[12]": {"conditions": "50 mg/kg PO, three daily doses days 3-5 PI, 0.5% aqueous HEC"}, "[13]": {"conditions": "oral dose 50.0 mg/kg, 0.5% aqueous HEC"}, "[14]": {"conditions": "Table 3 control: 10 mg/kg PO, three daily doses days 3-5 PI"}}, "note": "Read-outs that look alike come from different tables or passages of the source.", "data": [{"smiles": "COc1cc2[nH]c(C)c(-c3ccc(Oc4ccc(OC(F)(F)F)cc4)cc3F)c(=O)c2cc1Cl", "note": "[1b, 6-chloro-3-(2-fluoro-4-(4-(tfifluoromethoxy)phenoxy)phenyl)-7-methoxy-2-methyl-4(1H)-quinolone, reference compound]", "values": [{"measurement": "Day of death (avg)", "setting": "[1]; [7]", "value": 13}, {"measurement": "Suppression [%] day 6 PI", "setting": "[1]; [7]", "value": "<1", "unit": "%"}, {"measurement": "in vivo activity", "setting": "[1]; single dose of 10 mg/kg PO, 0.5% aqueous HEC", "value": "completely inactive"}, {"measurement": "AUC0→24", "setting": "[2]; [8]", "value": 228, "unit": "µmol·min/L"}, {"measurement": "CL", "setting": "[2]; [8]", "value": 26.6, "unit": "mL·kg/min"}, {"measurement": "Vd", "setting": "[2]; [8]", "value": 19.6, "unit": "L/kg"}, {"measurement": "t1/2 apparent", "setting": "[2]; [8]", "value": 8.5, "unit": "h"}, {"measurement": "tmax", "setting": "[2]; [8]", "value": 4, "unit": "h"}, {"measurement": "AUC0→24", "setting": "[2]; [9]", "value": 580, "unit": "µmol·min/L"}, {"measurement": "CL", "setting": "[2]; [9]", "value": 34.9, "unit": "mL·kg/min"}, {"measurement": "Vd", "setting": "[2]; [9]", "value": 44, "unit": "L/kg"}, {"measurement": "t1/2 apparent", "setting": "[2]; [9]", "value": 14.5, "unit": "h"}, {"measurement": "tmax", "setting": "[2]; [9]", "value": 8, "unit": "h"}, {"measurement": "Cmax", "setting": "[2]; read-out: Cmax [μmol/L], oral dose 3.0 mg/kg, 0.5% aqueous HEC, parent in plasma", "value": 0.31, "unit": "µmol/L"}, {"measurement": "Cmax", "setting": "[2]; read-out: Cmax [μmol/L], oral dose 100 mg/kg, 0.5% aqueous HEC", "value": 0.46, "unit": "µmol/L"}, {"measurement": "Cmax", "setting": "[2]; single oral 3 mg/kg, 0.5% aqueous HEC", "value": 0.31, "unit": "µmol/L"}]}, {"smiles": "CNCCOC(=O)OCOc1c(-c2ccccc2C)c(C)nc2cc(OC)c(Cl)cc12.Cl", "note": "[6a, 6-Chloro-7-methoxy-2-methyl-3-(o-tolyl)-4-(((2-(methylammonio)ethoxycarbonyl)oxy)methoxy)quinoline, chloride salt]", "values": [{"measurement": "Suppression [%] day 6 PI", "setting": "[1]; [10]", "value": 71, "unit": "%"}, {"measurement": "Day of death (avg)", "setting": "[1]; [11]", "value": 16}, {"measurement": "Day of death (avg)", "setting": "[1]; [12]", "value": 13}, {"measurement": "Suppression [%] day 6 PI", "setting": "[1]; [12]", "value": 46, "unit": "%"}]}, {"smiles": "CNCCOC(=O)OCOc1c(-c2ccc(C(F)(F)F)cc2)c(C)nc2cc(OC)c(Cl)cc12.Cl", "note": "[6c, 6-Chloro-7-methoxy-2-methyl-3-(4-(triftuoromethyl)phenyl)-4-(((2-(methylammonio)ethoxycarbonyl)oxy)methoxy)quinoline, chloride salt]", "values": [{"measurement": "Suppression [%] day 6 PI", "setting": "[1]; [10]", "value": 75, "unit": "%"}, {"measurement": "Day of death (avg)", "setting": "[1]; [11]", "value": 13}, {"measurement": "Day of death (avg)", "setting": "[1]; [12]", "value": 16}, {"measurement": "Suppression [%] day 6 PI", "setting": "[1]; [12]", "value": 96, "unit": "%"}, {"measurement": "AUC0→24", "setting": "[2]; [13]", "value": 8031, "unit": "µmol·min/L"}, {"measurement": "CL", "setting": "[2]; [13]", "value": 11.6, "unit": "mL·kg/min"}, {"measurement": "Vd", "setting": "[2]; [13]", "value": 7.8, "unit": "L/kg"}, {"measurement": "t1/2 apparent", "setting": "[2]; [13]", "value": 7.7, "unit": "h"}, {"measurement": "tmax", "setting": "[2]; [13]", "value": 4, "unit": "h"}, {"measurement": "Cmax", "setting": "[2]; read-out: Cmax [μmol/L], oral dose 50.0 mg/kg, 0.5% aqueous HEC, parent in plasma", "value": 12, "unit": "µmol/L"}, {"measurement": "AUC of 1d improved vs dosing of 1d", "setting": "[2]; single oral 50 mg/kg", "value": 36, "unit": "fold"}, {"measurement": "maximum plasma concentration of 1d", "setting": "[2]; single oral 50 mg/kg of prodrug, 0.5% aqueous HEC", "value": 12, "unit": "µM"}, {"measurement": "parent compound released", "setting": "[3]; in 1 h at pH 7.0", "value": "> 90", "unit": "%"}, {"measurement": "parent compound released", "setting": "[3]; in 10 h at pH 4.0", "value": "> 25", "unit": "%"}]}, {"smiles": "CCN(CC)Cc1cc(Nc2ccnc3cc(Cl)ccc23)ccc1O", "note": "[ADQ, reference compound]", "values": [{"measurement": "Suppression [%] day 6 PI", "setting": "[1]; [10]", "value": ">99", "unit": "%"}, {"measurement": "Day of death (avg)", "setting": "[1]; [11]", "value": 21}, {"measurement": "Day of death (avg)", "setting": "[1]; [14]", "value": 21}, {"measurement": "Suppression [%] day 6 PI", "setting": "[1]; [14]", "value": ">99", "unit": "%"}]}, {"smiles": "C[C@H]1Cc2c([nH]c3cc(Cl)c(F)cc23)[C@@]2(N1)C(=O)Nc1ccc(Cl)cc12", "note": "[KAE609]", "values": [{"measurement": "PO dose, single exposure radical cure", "setting": "[4]", "value": 100, "unit": "mg/kg"}]}, {"smiles": "COc1cc2nc(C)c(-c3ccccc3C)c(OC(=O)N3CCCC3)c2cc1Cl", "note": "[2b, 6-Chloro-7-methoxy-2-methyl-3-(o-tolyl)-4-((pyrrolidine-1-carbonyl)oxy)quinoline]", "values": [{"measurement": "EC50 values fold higher than reference 4(1H)-quinolone 1c", "setting": "[5]", "value": 300, "unit": "fold"}, {"measurement": "in vitro antimalarial activity / EC50 values relative to 1c", "setting": "[5]", "value": "lacked in antimalarial activity"}, {"measurement": "solubility", "setting": "[6]", "value": 2.9, "unit": "µM"}]}]}
